Assay results reported in the NIST ThermoML archive (doi:10.1021/je700096m).

Assay: xn = mol fraction of the nth substance listed
Conditions: 298.15 K, Liquid

CCCCCCCCCl [1-chlorooctane] + CC(=O)N(C)C
mass density [kg/m3]
Conditions | x2 = 0.0963 | x2 = 0.2006 | x2 = 0.2938 | x2 = 0.4059 | x2 = 0.5022 | x2 = 0.602 | x2 = 0.7005 | x2 = 0.8075 | x2 = 0.901
100 kPa | 872 | 875.8 | 879.6 | 884.87 | 890.2 | 896.7 | 904.1 | 913.7 | 923.6
2000 kPa | 873.5 | 877.2 | 881.1 | 886.2 | 891.5 | 898.1 | 905.4 | 914.9 | 924.8
4000 kPa | 875 | 878.7 | 882.5 | 887.6 | 892.9 | 899.4 | 906.8 | 916.3 | 926.1
6000 kPa | 876.5 | 880.2 | 884 | 889 | 894.3 | 900.8 | 908.1 | 917.5 | 927.3
8000 kPa | 877.9 | 881.6 | 885.5 | 890.4 | 895.8 | 902.2 | 909.4 | 918.8 | 928.5
10000 kPa | 879.5 | 883.1 | 887 | 892 | 897.3 | 903.6 | 910.8 | 920 | 929.8
12000 kPa | 880.9 | 884.5 | 888.3 | 893.3 | 898.5 | 904.9 | 912.1 | 921.3 | 931
14000 kPa | 882.3 | 885.9 | 889.7 | 894.6 | 899.9 | 906.1 | 913.4 | 922.4 | 932.2
15900 kPa | – | – | – | – | – | 907.4 | – | – | –
16000 kPa | 883.7 | 887.3 | 891.1 | 896 | 901.1 | – | 914.6 | 923.7 | 933.3
18000 kPa | 885 | 888.6 | 892.4 | 897.3 | 902.4 | 908.7 | 915.8 | 924.9 | 934.4
20000 kPa | 886.5 | 890.1 | 893.9 | 898.5 | 903.8 | 910 | 917.1 | 926.1 | 935.7
